Key:
[1] = molecular target: T1, Epidermal growth factor receptor (Homo sapiens, UniProt P00533); test: Inhibition of EGFR (unknown origin) using Poly (Glu, Tyr) as substrate incubated for 60 mins in presence of ATP by Kinase-Glo Plus luminescence kinase assay relative to control
[2] = molecular target: Extracellular calcium-sensing receptor (Homo sapiens, UniProt P41180); test: Inhibition of CASR (unknown origin)
[3] = molecular target: Cyclin-dependent kinase 7 (Homo sapiens, UniProt P50613); test: Inhibition of CDK7 (unknown origin)
Sequence of Cyclin-dependent kinase 7 (P50613 whole entry): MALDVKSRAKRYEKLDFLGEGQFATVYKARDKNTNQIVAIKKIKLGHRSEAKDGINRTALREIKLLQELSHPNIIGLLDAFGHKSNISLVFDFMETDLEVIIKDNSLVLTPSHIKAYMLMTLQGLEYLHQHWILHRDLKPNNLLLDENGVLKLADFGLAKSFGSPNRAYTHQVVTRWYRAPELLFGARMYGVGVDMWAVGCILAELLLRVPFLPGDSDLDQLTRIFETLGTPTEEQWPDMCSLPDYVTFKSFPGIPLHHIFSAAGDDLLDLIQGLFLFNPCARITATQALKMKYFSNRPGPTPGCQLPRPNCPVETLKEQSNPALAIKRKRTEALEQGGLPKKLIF

[4] = molecular target: T2, Cyclin-dependent kinase 9 (Homo sapiens, UniProt P50750)
T2 sequence (P50750 whole entry): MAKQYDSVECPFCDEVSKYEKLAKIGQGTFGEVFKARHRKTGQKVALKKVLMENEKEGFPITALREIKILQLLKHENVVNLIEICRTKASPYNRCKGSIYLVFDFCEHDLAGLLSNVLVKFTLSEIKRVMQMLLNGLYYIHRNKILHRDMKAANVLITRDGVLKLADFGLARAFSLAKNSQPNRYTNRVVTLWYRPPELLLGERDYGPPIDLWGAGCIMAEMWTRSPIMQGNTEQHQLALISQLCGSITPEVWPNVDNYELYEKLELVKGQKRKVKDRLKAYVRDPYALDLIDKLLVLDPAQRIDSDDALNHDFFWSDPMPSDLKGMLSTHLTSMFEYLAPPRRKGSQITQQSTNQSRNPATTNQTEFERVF
Description: Inhibition of CDK9 (unknown origin) by ADP-Glo kinase assay

[5] = molecular target: T3, Cyclin-dependent kinase 4 (Homo sapiens, UniProt P11802); test: Inhibition of CDK4 (unknown origin) at 1 uM relative to control
T3 sequence (P11802 whole entry): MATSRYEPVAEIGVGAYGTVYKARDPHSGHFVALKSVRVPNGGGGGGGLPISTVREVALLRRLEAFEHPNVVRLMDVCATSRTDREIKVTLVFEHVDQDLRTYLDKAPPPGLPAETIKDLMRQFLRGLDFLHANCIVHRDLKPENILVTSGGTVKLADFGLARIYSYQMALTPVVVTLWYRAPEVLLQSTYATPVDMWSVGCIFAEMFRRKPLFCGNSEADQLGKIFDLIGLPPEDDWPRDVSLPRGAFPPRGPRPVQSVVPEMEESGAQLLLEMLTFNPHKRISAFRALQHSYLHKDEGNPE

[6] = molecular target: T4, Cyclin-dependent kinase 2 (Homo sapiens, UniProt P24941)
[7] = molecular target: T3, Cyclin-dependent kinase 4; test: Inhibition of human CDK4 extracted from baculovirus infected Sf9 insect cells incubated for 1 hrs in presence of ATP by liquid scintillation counter analysis
[8] = molecular target: Receptor-type tyrosine-protein kinase FLT3 (Homo sapiens, UniProt P36888); test: Inhibition human recombinant FLT3
Sequence of Receptor-type tyrosine-protein kinase FLT3 (P36888 whole entry): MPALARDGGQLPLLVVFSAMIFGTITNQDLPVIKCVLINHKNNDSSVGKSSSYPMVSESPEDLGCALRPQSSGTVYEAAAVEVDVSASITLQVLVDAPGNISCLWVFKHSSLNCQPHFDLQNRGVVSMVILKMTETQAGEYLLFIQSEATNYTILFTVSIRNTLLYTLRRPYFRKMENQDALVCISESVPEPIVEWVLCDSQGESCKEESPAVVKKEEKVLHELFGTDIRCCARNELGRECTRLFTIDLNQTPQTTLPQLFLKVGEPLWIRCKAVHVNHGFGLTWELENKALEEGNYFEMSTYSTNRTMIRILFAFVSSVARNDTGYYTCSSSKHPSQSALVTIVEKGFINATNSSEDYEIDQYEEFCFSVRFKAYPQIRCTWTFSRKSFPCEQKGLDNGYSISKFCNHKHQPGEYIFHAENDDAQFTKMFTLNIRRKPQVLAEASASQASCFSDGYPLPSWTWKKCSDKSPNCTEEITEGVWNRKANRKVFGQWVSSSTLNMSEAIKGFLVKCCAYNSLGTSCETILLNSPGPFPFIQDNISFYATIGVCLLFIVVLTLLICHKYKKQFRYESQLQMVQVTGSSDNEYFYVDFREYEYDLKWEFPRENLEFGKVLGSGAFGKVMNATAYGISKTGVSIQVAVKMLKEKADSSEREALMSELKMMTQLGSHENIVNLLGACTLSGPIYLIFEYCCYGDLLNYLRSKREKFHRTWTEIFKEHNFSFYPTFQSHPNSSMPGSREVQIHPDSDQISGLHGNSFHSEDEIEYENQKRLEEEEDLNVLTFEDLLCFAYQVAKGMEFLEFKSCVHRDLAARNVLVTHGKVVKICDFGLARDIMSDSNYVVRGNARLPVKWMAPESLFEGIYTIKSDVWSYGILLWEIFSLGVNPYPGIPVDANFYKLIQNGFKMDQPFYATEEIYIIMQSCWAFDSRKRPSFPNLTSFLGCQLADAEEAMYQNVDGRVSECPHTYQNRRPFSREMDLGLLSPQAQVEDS

[9] = molecular target: T4, Cyclin-dependent kinase 2; test: Inhibition of CDK2 (unknown origin) by luminescence kinase assay
MCF7 [10] = test: Cytotoxicity against human MCF7 cells assessed as reduction in cell growth incubated fro 72 hrs by MTT assay; type: functional, cell-based; conditions: MCF7, 72 h
HCT-116 = test: Cytotoxicity against human HCT-116 cells assessed as reduction in cell growth incubated fro 72 hrs by MTT assay; type: functional, cell-based; conditions: HCT-116, 72 h
A549 [11] = test: Cytotoxicity against human A549 cells assessed as reduction in cell growth incubated fro 72 hrs by MTT assay; type: functional, cell-based; conditions: A549, 72 h
HepG2 = test: Cytotoxicity against human HepG2 cells assessed as reduction in cell growth incubated fro 72 hrs by MTT assay; type: functional, cell-based; conditions: HepG2, 72 h
Histone deacetylase 2 = Histone deacetylase 2 (Homo sapiens, UniProt Q92769)
Sequence of Histone deacetylase 2 (Q92769 whole entry): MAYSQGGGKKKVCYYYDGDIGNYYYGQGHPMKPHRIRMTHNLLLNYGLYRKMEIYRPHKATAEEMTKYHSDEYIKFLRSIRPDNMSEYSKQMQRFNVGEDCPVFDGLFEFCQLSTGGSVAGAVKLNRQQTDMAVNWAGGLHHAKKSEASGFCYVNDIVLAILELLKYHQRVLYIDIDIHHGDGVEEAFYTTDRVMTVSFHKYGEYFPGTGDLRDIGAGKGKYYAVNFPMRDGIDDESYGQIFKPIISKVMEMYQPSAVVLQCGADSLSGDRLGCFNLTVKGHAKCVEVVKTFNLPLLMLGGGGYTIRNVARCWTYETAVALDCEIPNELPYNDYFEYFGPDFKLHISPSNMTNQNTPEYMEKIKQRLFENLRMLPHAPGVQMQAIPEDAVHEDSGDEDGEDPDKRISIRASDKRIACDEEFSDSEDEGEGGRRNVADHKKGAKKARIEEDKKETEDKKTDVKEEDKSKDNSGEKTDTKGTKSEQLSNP
Description: Inhibition of HDAC2 (unknown origin)

SUM-159-PT = test: Cytotoxicity against human SUM159 cells; type: functional, cell-based
SK-OV-3 [12] = test: Cytotoxicity against human SK-OV-3 cells assessed as inhibition of cell growth incubated for 72 hrs by MTT assay; type: functional, cell-based; conditions: SK-OV-3, 72 h
MDA-MB-231 [13] = test: Cytotoxicity against human MDA-MB-231 cells; type: functional, cell-based
OVCAR-5 = test: Antiproliferative activity against human OVCAR-5 cells assessed as growth inhibition incubated for 48 hrs by SRB assay; type: functional, cell-based; conditions: OVCAR-5, 48 h
[14] = molecular target: T1, Epidermal growth factor receptor
[15] = molecular target: Amine oxidase [flavin-containing] A (Homo sapiens, UniProt P21397); test: Inhibition of MAO-A (unknown origin) measured by MAO-GloTM method
A549 [16] = test: Antiproliferative activity against human A549 cells; type: functional, cell-based
SK-OV-3 [17] = test: Antiproliferative activity against human SK-OV-3 cells; type: functional, cell-based
HeLa = test: Antiproliferative activity against human HeLa cells; type: functional, cell-based
[18] = Antiproliferative activity against human PC-3 cells; type: functional, cell-based
HT-29 = test: Antiproliferative activity against human HT-29 cells assessed as reduction in cell viability incubated for 24 hrs by MTT assay; type: functional, cell-based; conditions: HT-29, 24 h
A549 [19] = test: Antiproliferative activity against human A549 cells assessed as reduction in cell viability incubated for 24 hrs by MTT assay; type: functional, cell-based; conditions: A549, 24 h
MCF7 [20] = test: Antiproliferative activity against human MCF7 cells assessed as reduction in cell viability incubated for 24 hrs by MTT assay; type: functional, cell-based; conditions: MCF7, 24 h
PANC-1 = test: Antiproliferative activity against human PANC-1 cells assessed as reduction in cell viability incubated for 24 hrs by MTT assay; type: functional, cell-based; conditions: PANC-1, 24 h
Histone deacetylase 1 = Histone deacetylase 1 (Homo sapiens, UniProt Q13547)
Description: Inhibition of HDAC1 (unknown origin)

[21] = molecular target: Cyclin-dependent kinase 1/cyclin B1 (Homo sapiens) (UniProt P06493+P14635); test: Inhibition of CDK1/cyclin B1 (unknown origin) at 10 nM relative to control; type: protein-complex assay
[22] = molecular target: Receptor tyrosine-protein kinase erbB-2 (Homo sapiens) (UniProt P04626); test: Inhibition of HER2 (unknown origin) at 10 uM in presence of ATP relative to control
[23] = molecular target: T5, Poly [ADP-ribose] polymerase 1 (Homo sapiens, UniProt P09874); test: Inhibition of PARP-1 (unknown origin) incubated for 60 mins by chemiluminescent assay
T5 sequence (P09874 whole entry): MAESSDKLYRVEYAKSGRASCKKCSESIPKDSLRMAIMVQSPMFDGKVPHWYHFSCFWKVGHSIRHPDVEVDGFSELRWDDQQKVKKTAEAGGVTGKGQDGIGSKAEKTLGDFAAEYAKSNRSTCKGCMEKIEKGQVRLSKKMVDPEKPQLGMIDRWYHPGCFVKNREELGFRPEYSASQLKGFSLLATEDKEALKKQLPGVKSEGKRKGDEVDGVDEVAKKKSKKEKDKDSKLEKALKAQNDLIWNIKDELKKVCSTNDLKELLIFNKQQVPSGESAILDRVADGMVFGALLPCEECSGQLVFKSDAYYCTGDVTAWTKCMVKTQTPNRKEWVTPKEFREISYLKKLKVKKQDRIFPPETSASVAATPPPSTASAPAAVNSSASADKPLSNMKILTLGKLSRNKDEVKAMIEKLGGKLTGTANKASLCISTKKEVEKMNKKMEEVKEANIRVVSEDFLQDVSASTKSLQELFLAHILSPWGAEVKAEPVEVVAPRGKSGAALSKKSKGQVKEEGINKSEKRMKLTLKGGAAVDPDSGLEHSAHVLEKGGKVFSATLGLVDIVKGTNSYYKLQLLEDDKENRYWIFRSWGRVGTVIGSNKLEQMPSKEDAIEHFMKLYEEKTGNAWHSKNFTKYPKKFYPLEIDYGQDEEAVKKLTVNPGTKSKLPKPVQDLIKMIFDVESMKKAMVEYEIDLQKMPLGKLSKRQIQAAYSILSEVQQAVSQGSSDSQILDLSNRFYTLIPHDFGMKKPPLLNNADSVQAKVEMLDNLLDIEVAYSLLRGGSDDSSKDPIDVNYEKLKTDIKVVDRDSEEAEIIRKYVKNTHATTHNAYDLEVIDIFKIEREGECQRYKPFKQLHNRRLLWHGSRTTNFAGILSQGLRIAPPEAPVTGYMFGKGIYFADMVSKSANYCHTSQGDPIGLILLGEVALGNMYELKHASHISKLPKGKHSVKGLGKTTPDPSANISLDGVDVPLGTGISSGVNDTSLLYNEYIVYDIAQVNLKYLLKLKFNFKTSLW

[24] = molecular target: T2, Cyclin-dependent kinase 9; test: Inhibition of CDK9 (unknown origin)
[25] = molecular target: T5, Poly [ADP-ribose] polymerase 1; test: Inhibition of PARP1 (unknown origin)
MDA-MB-468 = test: Cytotoxicity against human MDA-MB-468 cells assessed as cell growth inhibition; type: functional, cell-based
[26] = molecular target: Cyclin-dependent kinase 6 (Homo sapiens, UniProt Q00534)
Sequence of Cyclin-dependent kinase 6 (Q00534 whole entry): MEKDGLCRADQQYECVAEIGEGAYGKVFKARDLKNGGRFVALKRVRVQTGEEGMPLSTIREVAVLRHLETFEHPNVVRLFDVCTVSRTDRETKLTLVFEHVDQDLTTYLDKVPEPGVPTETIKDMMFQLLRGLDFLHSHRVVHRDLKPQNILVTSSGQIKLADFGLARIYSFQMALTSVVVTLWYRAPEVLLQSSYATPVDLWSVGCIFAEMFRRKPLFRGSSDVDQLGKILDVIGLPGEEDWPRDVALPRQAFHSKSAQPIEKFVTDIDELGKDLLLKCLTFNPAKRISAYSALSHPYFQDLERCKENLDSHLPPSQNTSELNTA
Description: Inhibition of CDK6 (unknown origin))

MDA-MB-231 [27] = test: Cytotoxicity against human MDA-MB-231 cells assessed as cell growth inhibition; type: functional, cell-based
BT-549 = test: Cytotoxicity against human BT-549 cells assessed as cell growth inhibition; type: functional, cell-based
Aurora kinase A = Aurora kinase A (Homo sapiens, UniProt O14965); test: Inhibition of Aurora A (unknown origin)
[28] = molecular target: Cyclin-dependent kinase 5 (Homo sapiens, UniProt Q00535)
Description: Inhibition of CDK5 (unknown origin)

K562 = test: Growth inhibition of human K562 cells incubated for 72 hrs by SRB assay; type: functional
MCF7 [29] = test: Growth inhibition of human MCF-7 cells incubated for 72 hrs by SRB assay; type: functional
[30] = molecular target: T4, Cyclin-dependent kinase 2; remark: listed apart in the source
Description: Inhibition of CDK2 (unknown origin) by mobility shift assay

MDA-MB-231 [31] = test: Cytotoxicity against human MDA-MB-231 cells assessed as reduction in cell growth incubated for 72 hrs by MTT assay; type: functional, cell-based; conditions: MDA-MB-231, 72 h
MCF7 [32] = test: Cytotoxicity against human MCF7 cells assessed as reduction in cell growth incubated for 72 hrs by MTT assay; type: functional, cell-based; conditions: MCF7, 72 h

T1 sequence (P00533 whole entry): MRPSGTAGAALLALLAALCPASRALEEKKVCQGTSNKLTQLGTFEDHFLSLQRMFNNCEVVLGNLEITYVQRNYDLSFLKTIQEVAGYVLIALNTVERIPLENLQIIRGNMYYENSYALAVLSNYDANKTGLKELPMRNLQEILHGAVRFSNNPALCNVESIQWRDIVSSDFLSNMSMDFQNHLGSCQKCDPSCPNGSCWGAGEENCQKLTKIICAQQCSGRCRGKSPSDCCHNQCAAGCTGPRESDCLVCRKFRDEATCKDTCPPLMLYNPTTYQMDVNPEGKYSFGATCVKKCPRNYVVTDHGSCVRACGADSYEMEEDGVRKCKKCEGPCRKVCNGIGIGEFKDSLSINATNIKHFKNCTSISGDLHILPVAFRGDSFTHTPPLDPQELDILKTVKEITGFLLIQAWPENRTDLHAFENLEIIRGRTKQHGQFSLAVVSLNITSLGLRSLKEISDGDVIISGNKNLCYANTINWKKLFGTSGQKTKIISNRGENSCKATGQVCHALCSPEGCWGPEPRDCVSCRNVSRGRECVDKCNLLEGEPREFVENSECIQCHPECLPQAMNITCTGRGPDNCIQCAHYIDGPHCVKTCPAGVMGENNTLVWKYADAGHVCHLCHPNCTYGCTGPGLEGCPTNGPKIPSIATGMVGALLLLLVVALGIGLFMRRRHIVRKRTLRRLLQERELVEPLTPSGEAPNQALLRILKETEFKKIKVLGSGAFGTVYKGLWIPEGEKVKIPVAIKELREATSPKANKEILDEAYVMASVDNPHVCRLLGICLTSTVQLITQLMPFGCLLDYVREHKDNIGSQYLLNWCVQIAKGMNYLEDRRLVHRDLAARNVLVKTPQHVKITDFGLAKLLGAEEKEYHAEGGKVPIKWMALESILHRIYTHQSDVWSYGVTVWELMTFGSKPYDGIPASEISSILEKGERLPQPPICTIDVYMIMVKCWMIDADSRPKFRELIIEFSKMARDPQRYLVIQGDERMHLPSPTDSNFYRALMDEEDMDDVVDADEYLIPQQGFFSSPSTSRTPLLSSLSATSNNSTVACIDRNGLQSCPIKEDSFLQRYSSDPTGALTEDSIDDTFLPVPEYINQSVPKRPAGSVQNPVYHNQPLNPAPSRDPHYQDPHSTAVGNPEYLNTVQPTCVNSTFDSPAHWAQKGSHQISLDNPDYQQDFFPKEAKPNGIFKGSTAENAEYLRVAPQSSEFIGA

For `O=C(c1ccc2ccccc2c1)c1cn(-c2ccccc2)nc1C1=Nn2cnnc2SC1`, the IC50 [1] was 0.0647 µM.
`C[C@@H](NCCCc1cccc(C(F)(F)F)c1)c1cccc2ccccc12` gave an IC50 [2] of 2.8 µM.
`CN(C)C/C=C/C(=O)Nc1cccc(C(=O)Nc2cccc(Nc3ncc(Cl)c(-c4c[nH]c5ccccc45)n3)c2)c1` gave an IC50 [3] of 0.019 µM.
`COC[C@@H](C)N[C@H]1CC[C@H](Nc2cc(-c3cccc(NCC4(C#N)CCOCC4)n3)c(Cl)cn2)CC1` showed an IC50 [4] of 0.00051 µM.
In the case of `O=C(Nc1cc(-c2ccc3nc4c([nH]c5ccccc54)c(N4CCOCC4)c3c2)ccn1)C1CC1`, the inhibition [5] is reported as 5.31% and the IC50 [6] is reported as 3.91 µM.
For `CCN1CCN(c2ccc(Nc3ncc(F)c(-c4cnc5cnn(C(C)C)c5c4)n3)cc2F)CC1`, the IC50 [7] was 0.007 µM and the IC50 [8] was 0.011 µM.
`O=C(c1ccc2ccccc2c1)c1cn(-c2ccccc2)nc1C1=Nn2c(S)nnc2SC1` showed an IC50 [9] of 0.0896 µM and an IC50 [1] of 0.165 µM.
Work on `N[C@H]1CCN(c2c3cc(-c4ccnc(NC(=O)C5CC5)c4)ccc3nc3c2[nH]c2ccccc23)C1` yielded an inhibition [5] of 41.1%, an IC50 (MCF7 [10]) of 1.12 µM and an IC50 (HCT-116) of 0.821 µM. For the same compound, the IC50 [6] was 0.145 µM, the IC50 (A549 [11]) was 0.949 µM and the IC50 (HepG2) was 1.95 µM.
In the case of `Nc1ccc(F)cc1NC(=O)c1ccc(CNC(=O)/C=C/c2cccnc2)cc1`, the IC50 (Histone deacetylase 2) is reported as 0.093 µM.
Compound `Cc1nc2c(F)cc(-c3nc(Nc4ccc(N5CCN(C(=O)c6cc(Cc7n[nH]c(=O)c8ccccc78)ccc6F)CC5)cn4)ncc3F)cc2n1C(C)C` has an IC50 (SUM-159-PT) of 0.435 µM, an IC50 (SK-OV-3 [12]) of 0.548 µM and an IC50 (MDA-MB-231 [13]) of 3.61 µM. The IC50 (OVCAR-5) was 0.758 µM.
With `Cc1cc(C)cc(NNC(=O)[C@H]2CCCN2C(=O)Nc2ccc(Cl)cc2)c1` the IC50 [14] was 0.096 µM and the IC50 [6] was 0.015 µM.
With `O=C(Nc1ccc2[nH]ncc2c1)c1cccc(Cl)c1Cl` the IC50 [15] was > 10 µM.
With `Cc1n[nH]c2c1C(c1ccc(F)cc1)C(C#N)=C(N)O2` (centres undefined) the IC50 (A549 [16]) was 1.8 µM, the IC50 (SK-OV-3 [17]) was 2.03 µM and the IC50 (HeLa) was 1.9 µM. It also gave an IC50 [18] of 2.8 µM.
`Cc1ccc(NNC(=O)[C@H]2CCCN2C(=O)Nc2ccc(C(F)(F)F)cc2)cc1` gave an IC50 (HT-29) of 4.2 µM, an IC50 (A549 [19]) of 3.9 µM and an IC50 (MCF7 [20]) of 3.7 µM. The IC50 (PANC-1) was 4.1 µM.
Compound `O=C(CCCCCCC(=O)Nc1cccc(C(=O)Nc2cccc(Nc3ncc(Cl)c(-c4c[nH]c5ccccc45)n3)c2)c1)NO` has an IC50 [3] of 0.893 µM and an IC50 (Histone deacetylase 1) of 0.248 µM.
`O=C(Nc1ccc2c(ccn2C(=O)c2cccc(F)c2)c1)c1ccnnc1` gave an inhibition [21] of 51% and an inhibition [22] of 52%.
`Cc1nnc2n1N=C(c1ccccc1OCC(=O)NCCCNC(=O)COc1ccccc1C1=Nn3c(C)nnc3SC1)CS2` showed an IC50 [23] of 0.00137 µM.
`CCOc1ccc(C2C(C#N)=C(N)OC3C2C(C)=NN3c2ccc(Cl)cc2)cc1` (centres undefined) gave an IC50 [14] of 0.00021 µM and an IC50 [24] of 1.26 nM.
For `Cc1cc(=O)n(C2CCCC2)c2nc(NCCC3CCN(C(=O)c4cc(Cc5n[nH]c(=O)c6ccccc56)ccc4F)CC3)ncc12`, the IC50 [25] was 0.041 µM, the IC50 (MDA-MB-468) was 2.81 µM and the IC50 [26] was 0.127 µM. For the same compound, the IC50 (MDA-MB-231 [27]) was 1.96 µM and the IC50 (BT-549) was 2.37 µM.
`CCN1CCN(c2ccc(Nc3ncc(F)c(-c4cnc5cnn(C(C)C)c5c4)n3)cc2)CC1` showed an IC50 [7] of 0.01 µM and an IC50 [8] of 0.008 µM.
`CC[C@H](CO)Nc1nc(NCc2ccccc2N)c2[nH]nc(C(C)C)c2n1` gave an IC50 (Aurora kinase A) of 0.4 µM, an IC50 [6] of 0.07 µM and an IC50 [28] of 0.26 µM.
With `Cc1cc(C)cc(NNC(=O)[C@H]2CCCN2C(=O)Nc2ccc(C(F)(F)F)cc2)c1` the IC50 [14] was 0.087 µM and the IC50 [6] was 0.023 µM.
With `CCCCCCCNc1nc(NCc2ccccc2)c2n[nH]c(C(C)C)c2n1` the GI50 (K562) was 17 µM, the GI50 (MCF7 [29]) was 21.4 µM and the IC50 [6] was > 1000 µM.
`O=C1Nc2ccccc2/C1=C1/Nc2ccccc2C1=O` [INDIRUBIN] showed an IC50 [30] of 0.003 µM.
Work on `CCOc1ccc(/C=C2/C(=O)N(c3ccc(Cl)cc3)N=C2C)cc1` yielded an IC50 [14] of 0.00012 µM and an IC50 [24] of 0.077 nM.
Compound `O=C(CC(=O)Nc1cccc(C(=O)Nc2cccc(Nc3ncc(Cl)c(-c4c[nH]c5ccccc45)n3)c2)c1)NO` has an IC50 (MDA-MB-231 [31]) of 23 µM and an IC50 (MCF7 [32]) of 18.1 µM.

Source: ChEMBL document CHEMBL6134823, “Combination therapy and dual-target inhibitors based on cyclin-dependent kinases (CDKs): Emerging strategies for cancer therapy” (Eur J Med Chem, 2025)
